Starred links: 1 amine or outer side, 2 acyl side, 3 side chain; linkers in the order of their positions; H or OH if unused. Positions of bridges follow the written chain, without caps; N, C: chain ends. Non-standard residues stand in square brackets, D forms with d. Primed or numbered codes have the meaning given here. *: point of attachment. B21″ = 2,7-dimethylnaphtyl linker joining two Cys, c1cc2ccc(C[*:2])cc2cc1C[*:1]; tBuAla = CC(C)(C)C[C@H](N)C(=O)O; Suc = O=C(CCC(=O)[*:2])[*:1]; Isovaleryl = CC(C)CC(=O)*; Pentanoyl = CCCCC(=O)*; B1 = not defined here; B2 = not defined here
B1: peptide 22 (peptide)
peptide: Ac-CYAACIEALIRAAQEQQEKNEAALR-NH2
modifications: linker 1-5 via B21″
SMILES: CC[C@H](C)[C@H](NC(=O)[C@H](CC(C)C)NC(=O)[C@H](C)NC(=O)[C@H](CCC(=O)O)NC(=O)[C@@H](NC(=O)[C@@H]1CSCc2ccc3ccc(cc3c2)CSC[C@H](NC(C)=O)C(=O)N[C@@H](Cc2ccc(O)cc2)C(=O)N[C@@H](C)C(=O)N[C@@H](C)C(=O)N1)[C@@H](C)CC)C(=O)N[C@@H](CCCNC(=N)N)C(=O)N[C@@H](C)C(=O)N[C@@H](C)C(=O)N[C@@H](CCC(N)=O)C(=O)N[C@@H](CCC(=O)O)C(=O)N[C@@H](CCC(N)=O)C(=O)N[C@@H](CCC(N)=O)C(=O)N[C@@H](CCC(=O)O)C(=O)N[C@@H](CCCCN)C(=O)N[C@@H](CC(N)=O)C(=O)N[C@@H](CCC(=O)O)C(=O)N[C@@H](C)C(=O)N[C@@H](C)C(=O)N[C@@H](CC(C)C)C(=O)N[C@@H](CCCNC(=N)N)C(N)=O
B2: peptide 20 (peptide)
peptide: Suc-ENYLRLIEELIRKAQEQQEKNEAALR-NH2
SMILES: CC[C@H](C)[C@H](NC(=O)[C@H](CC(C)C)NC(=O)[C@H](CCC(=O)O)NC(=O)[C@H](CCC(=O)O)NC(=O)[C@@H](NC(=O)[C@H](CC(C)C)NC(=O)[C@H](CCCNC(=N)N)NC(=O)[C@H](CC(C)C)NC(=O)[C@H](Cc1ccc(O)cc1)NC(=O)[C@H](CC(N)=O)NC(=O)[C@H](CCC(=O)O)NC(=O)CCC(=O)O)[C@@H](C)CC)C(=O)N[C@@H](CCCNC(=N)N)C(=O)N[C@@H](CCCCN)C(=O)N[C@@H](C)C(=O)N[C@@H](CCC(N)=O)C(=O)N[C@@H](CCC(=O)O)C(=O)N[C@@H](CCC(N)=O)C(=O)N[C@@H](CCC(N)=O)C(=O)N[C@@H](CCC(=O)O)C(=O)N[C@@H](CCCCN)C(=O)N[C@@H](CC(N)=O)C(=O)N[C@@H](CCC(=O)O)C(=O)N[C@@H](C)C(=O)N[C@@H](C)C(=O)N[C@@H](CC(C)C)C(=O)N[C@@H](CCCNC(=N)N)C(N)=O
B3: peptide 16 (peptide)
peptide: Pentanoyl-ANYAALIEALIRKAQEQQEKNEAALR-NH2
SMILES: CCCCC(=O)N[C@@H](C)C(=O)N[C@@H](CC(N)=O)C(=O)N[C@@H](Cc1ccc(O)cc1)C(=O)N[C@@H](C)C(=O)N[C@@H](C)C(=O)N[C@@H](CC(C)C)C(=O)N[C@H](C(=O)N[C@@H](CCC(=O)O)C(=O)N[C@@H](C)C(=O)N[C@@H](CC(C)C)C(=O)N[C@H](C(=O)N[C@@H](CCCNC(=N)N)C(=O)N[C@@H](CCCCN)C(=O)N[C@@H](C)C(=O)N[C@@H](CCC(N)=O)C(=O)N[C@@H](CCC(=O)O)C(=O)N[C@@H](CCC(N)=O)C(=O)N[C@@H](CCC(N)=O)C(=O)N[C@@H](CCC(=O)O)C(=O)N[C@@H](CCCCN)C(=O)N[C@@H](CC(N)=O)C(=O)N[C@@H](CCC(=O)O)C(=O)N[C@@H](C)C(=O)N[C@@H](C)C(=O)N[C@@H](CC(C)C)C(=O)N[C@@H](CCCNC(=N)N)C(N)=O)[C@@H](C)CC)[C@@H](C)CC
B4: peptide 19 (peptide)
peptide: Suc-ENYLALIEELIRKAQEQQEKNEAALR-NH2
SMILES: CC[C@H](C)[C@H](NC(=O)[C@H](CC(C)C)NC(=O)[C@H](C)NC(=O)[C@H](CC(C)C)NC(=O)[C@H](Cc1ccc(O)cc1)NC(=O)[C@H](CC(N)=O)NC(=O)[C@H](CCC(=O)O)NC(=O)CCC(=O)O)C(=O)N[C@@H](CCC(=O)O)C(=O)N[C@@H](CCC(=O)O)C(=O)N[C@@H](CC(C)C)C(=O)N[C@H](C(=O)N[C@@H](CCCNC(=N)N)C(=O)N[C@@H](CCCCN)C(=O)N[C@@H](C)C(=O)N[C@@H](CCC(N)=O)C(=O)N[C@@H](CCC(=O)O)C(=O)N[C@@H](CCC(N)=O)C(=O)N[C@@H](CCC(N)=O)C(=O)N[C@@H](CCC(=O)O)C(=O)N[C@@H](CCCCN)C(=O)N[C@@H](CC(N)=O)C(=O)N[C@@H](CCC(=O)O)C(=O)N[C@@H](C)C(=O)N[C@@H](C)C(=O)N[C@@H](CC(C)C)C(=O)N[C@@H](CCCNC(=N)N)C(N)=O)[C@@H](C)CC
B5: peptide 17 (peptide)
peptide: Isovaleryl-ANYAALIEALIRAAQEQQEKNEAALR-NH2
SMILES: CC[C@H](C)[C@H](NC(=O)[C@H](CC(C)C)NC(=O)[C@H](C)NC(=O)[C@H](CCC(=O)O)NC(=O)[C@@H](NC(=O)[C@H](CC(C)C)NC(=O)[C@H](C)NC(=O)[C@H](C)NC(=O)[C@H](Cc1ccc(O)cc1)NC(=O)[C@H](CC(N)=O)NC(=O)[C@H](C)NC(=O)CC(C)C)[C@@H](C)CC)C(=O)N[C@@H](CCCNC(=N)N)C(=O)N[C@@H](C)C(=O)N[C@@H](C)C(=O)N[C@@H](CCC(N)=O)C(=O)N[C@@H](CCC(=O)O)C(=O)N[C@@H](CCC(N)=O)C(=O)N[C@@H](CCC(N)=O)C(=O)N[C@@H](CCC(=O)O)C(=O)N[C@@H](CCCCN)C(=O)N[C@@H](CC(N)=O)C(=O)N[C@@H](CCC(=O)O)C(=O)N[C@@H](C)C(=O)N[C@@H](C)C(=O)N[C@@H](CC(C)C)C(=O)N[C@@H](CCCNC(=N)N)C(N)=O

Key:
HIV-IIIB + 50% HS = assay: Standard AVE (50% Human Serum), HIV-1 replication assay in MT4-LTR-EGFP cells; type: cell-based; settings: fold change vs EC50 in the assay without human serum
From the text: The HIV-1 replication assay (with 50% human serum) measures virus replication as an induction of enhanced green fluorescent protein (EGFP) expression, in the presence of 50% human serum. The indicator MT4-LTR-EGFP cells contain an EGFP gene under the control of the HIV-1 LTR promoter sequence. Successful HIV-1 infection results in viral Tat protein expression and subsequent induction of EGFP expression. Compounds/peptides inhibiting HIV-1 infection are expected to reduce EGFP expression as compared to the untreated HIV-infected control. Compounds/peptides binding to human serum are expected to have a reduced activity for inhibiting the virus in the assay.
Serial 4-fold dilutions of test compounds/peptides were mixed with HIV-1 and MT4-LTR-EGFP cells and incubated at 37° C., in the presence of 50% human serum. After 3 days, the wells were examined for EGFP expression using an argon laser-scanning microscope. The effective compound/peptide concentration inhibiting 50% of the virus-induced EGFP signal (EC50) was determined by linear interpolation of the EGFP signal vs. logarithm of the compound concentration; T20, C34 and Sifuvirtide were added as reference compounds. Results were reported as a fold change in EC50, as compared with the acquired EC50 in the assay without human serum.

[1] = tested on: HIV wild type virus strain IIIB; assay: Standard Anti-Viral-Experiment (AVE), HIV-1 replication assay in MT4-LTR-EGFP cells, wild type IIIB; type: cell-based; settings: 3 days, EGFP signal
From the text: • Standard Anti-Viral-Experiment “AVE” (wild type HIV strain IIIB+HIV strain HXB2D side directed mutants V38A and Q40H)
The HIV-1 replication assay measures virus replication (HIV wild type virus strain 111B or HXB2D, or a HIV mutant virus strain HXB2D with mutation V38A or Q40H in the gp41 gene) as an induction of enhanced green fluorescent protein (EGFP) expression. The indicator MT4-LTR-EGFP cells contain an EGFP gene under the control of the HIV-1 LTR promoter sequence. Successful HIV-1 infection results in viral Tat protein expression and subsequent induction of EGFP expression. Compounds/peptides inhibiting HIV-1 infection are expected to reduce EGFP expression as compared to the untreated HIV-infected control.
Serial 4-fold dilutions of test compounds/peptides were mixed with HIV-1 (IIIB, HXB2D, or a HXB2D mutant virus (V38A or Q40H)) and MT4-LTR-EGFP cells and incubated at 37° C. After 3 days, the wells were examined for EGFP expression using an argon laser-scanning microscope. The effective compound/peptide concentration inhibiting 50% of the virus-induced EGFP signal (EC50) was determined by linear interpolation of the EGFP signal vs. logarithm of the compound concentration; (T20, C34 and Sifuvirtide were added as reference compounds). For the V38A and Q40H mutant viruses, results were reported as a fold change in EC50, as compared with a drug-susceptible wild type strain HXB2D, which forms the backbone of the mutant virus. • Standard AVE (50% Human Serum)

[2] = target: gp41 of HIV-1 strain HXB2D with mutation V38A (HIV-1 strain HXB2D, UniProt P04578); assay: cell-based or functional assay

Molecule	HIV-IIIB + 50% HS (Fold change in EC50) (HIV-IIIB + 50% HS)	EC50 [1] [nM]	fold change in EC50, HIV-HXB2D V38A mutant [2] [fold]
AC-ACYAACIEALIRAAQEQQEKNEAALR-NH2 [Peptide 89]	3	18	–
AC-ACYAACIEALIRAAREQQEKNEAALR-NH2 [Peptide 84]	4	13	–
AC-ACYWACIEALIRAAQEQQEKNEAALR-NH2 [Peptide 63]	3	7	–
AC-ECYAACIEALIRAAQEQQEKNEAALR-NH2 [Peptide 74]	0.9	53	–
ANYAALIEALIRKAQEQQEKNEAALR [Peptide 5]	0.5	48	–
ANYLALIEALIRAAQEQQEKNEAALR [Peptide 6]	0.7	5	–
Ac-ACYAACIDALIRAAQEQQEKNEAALR-NH2 [Peptide 70]	1	23	–
Ac-ACYAACIEALIRAAQEQQEKNEAALR-NH2 [Peptide 64]	0.8	56	–
Ac-ACYAACIEALIRAAQEQQEKNEAALR-NH2 [Peptide 65]	1	17	–
Ac-ACYAACIEALIRAAQEQQEKNEALLR-NH2 [Peptide 73]	3	21	–
Ac-ACYAACIEALIRKAQEQQEKNEAALR-NH2 [Peptide 71]	1	8	–
Ac-ACYAACIEELIRKAQEQQEKNEAALR-NH2 [Peptide 72]	0.6	15	–
Ac-ACYAAcIEALIRAAQEQQEKNEAALR-NH2 [Peptide 83]	3	54	–
Ac-ACYFACIEALIRAAQEQQEKNEAALR-NH2 [Peptide 61]	4	4	–
Ac-ACYIACIEALIRAAQEQQEKNEAALR-NH2 [Peptide 57]	2	4	–
Ac-ACYIACIEALIRAAQEQQEKNEAALR-NH2 [Peptide 58]	6	4	–
Ac-ACYLACIEALIRAAQEQQEKNEAALL-NH2 [Peptide 54]	2	3	–
Ac-ACYLACIEALIRAAQEQQEKNEAALR-NH2 [Peptide 56]	2	4	–
Ac-ACYVACIEALIRAAQEQQEKNEAALR-NH2 [Peptide 62]	2	10	–
Ac-aCYAACIEALIRAAQEQQEKNEAALr-NH2 [Peptide 76]	2	–	–
B1	–	–	19
Suc-CYLACIEELIRKAQEQQEKNEAAL[tBuAla]-NH2 (linker 1-5 via B2; reading uncertain) [peptide 23]	–	–	45
Ac-CYAACIEALIRAAQEQQEKNEAALR-NH2 (linker 1-5 via B1; reading uncertain) [peptide 21]	–	–	75
B2	–	–	8
B3	–	–	49
B4	–	–	22
B5	–	–	75
